{
  "source": "the supplement of paper PMC4862054",
  "data": [
    {"system": "CAL-85-1", "conditions": "72 h", "method": "(§1)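 Drug sensitivity and resistance testing (DSRT) of breast cancer cell lines in 384-well plates, 5 concentrations in 10-fold dilutions over a compound-specific 10,000-fold range. After 72 h, cytotoxicity was read by CellTox Green fluorescence and viability by CellTiter-Glo luminescence (multiplexed), normalised to DMSO and benzethonium chloride controls. EC50 is the inflection point of the fitted dose-response curve (bottom asymptote free, so it can be relative for partial curves) and is censored at the highest tested concentration. Rows with DSS 0 (no meaningful response) were excluded.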", "units": {"EC50, CellTox Green": "µM"}, "values": [
      {"smiles": "O=[N+]([O-])c1ccc2c(c1)S(=O)(=O)C=C2", "note": "[Stattic]", "EC50, CellTox Green": 1.11}
    ]},
    {"system": "DU-4475", "conditions": "72 h", "method": "as §1", "units": {"EC50, CellTox Green": "µM"}, "values": [
      {"smiles": "CCN(CC)CCCC(C)Nc1ccnc2cc(Cl)ccc12", "note": "(stereo unspecified) [Chloroquine]", "EC50, CellTox Green": 96.8},
      {"smiles": "CCNC(=O)c1noc(-c2cc(C(C)C)c(O)cc2O)c1-c1ccc(CN2CCOCC2)cc1", "note": "[NVP-AUY922]", "EC50, CellTox Green": 0.0252}
    ]},
    {"system": "HCC1143", "conditions": "72 h", "method": "as §1", "units": {"EC50, CellTox Green": "µM"}, "values": [
      {"smiles": "C=CCn1c(=O)c2cnc(Nc3ccc(N4CCN(C)CC4)cc3)nc2n1-c1cccc(C(C)(C)O)n1", "note": "[MK1775]", "EC50, CellTox Green": 5.09},
      {"smiles": "O=[N+]([O-])c1ccc2c(c1)S(=O)(=O)C=C2", "note": "[Stattic]", "EC50, CellTox Green": 13.8},
      {"smiles": "O=C(CCCCCCC(=O)Nc1ccccc1)NO", "note": "[Vorinostat]", "EC50, CellTox Green": 6.13}
    ]},
    {"system": "HCC1599", "conditions": "72 h", "method": "as §1", "units": {"EC50, CellTox Green": "µM"}, "values": [
      {"smiles": "COc1cc(Nc2c(C#N)cnc3cc(OCCCN4CCN(C)CC4)c(OC)cc23)c(Cl)cc1Cl", "note": "[Bosutinib]", "EC50, CellTox Green": "> 10"},
      {"smiles": "CCN(CC)CCCC(C)Nc1ccnc2cc(Cl)ccc12", "note": "(stereo unspecified) [Chloroquine]", "EC50, CellTox Green": 17.9},
      {"smiles": "C=CCn1c(=O)c2cnc(Nc3ccc(N4CCN(C)CC4)cc3)nc2n1-c1cccc(C(C)(C)O)n1", "note": "[MK1775]", "EC50, CellTox Green": 0.0541}
    ]},
    {"system": "HCC1937", "conditions": "72 h", "method": "as §1", "units": {"EC50, CellTox Green": "µM"}, "values": [
      {"smiles": "COc1cc(Nc2c(C#N)cnc3cc(OCCCN4CCN(C)CC4)c(OC)cc23)c(Cl)cc1Cl", "note": "[Bosutinib]", "EC50, CellTox Green": 5.4},
      {"smiles": "CCN(CC)CCCC(C)Nc1ccnc2cc(Cl)ccc12", "note": "(stereo unspecified) [Chloroquine]", "EC50, CellTox Green": 23.9},
      {"smiles": "CCNC(=O)c1noc(-c2cc(C(C)C)c(O)cc2O)c1-c1ccc(CN2CCOCC2)cc1", "note": "[NVP-AUY922]", "EC50, CellTox Green": 0.987},
      {"smiles": "O=[N+]([O-])c1ccc2c(c1)S(=O)(=O)C=C2", "note": "[Stattic]", "EC50, CellTox Green": 0.349}
    ]},
    {"system": "HDQ-P1", "conditions": "72 h", "method": "as §1", "units": {"EC50, CellTox Green": "µM"}, "values": [
      {"smiles": "COc1cc(Nc2c(C#N)cnc3cc(OCCCN4CCN(C)CC4)c(OC)cc23)c(Cl)cc1Cl", "note": "[Bosutinib]", "EC50, CellTox Green": 5.94},
      {"smiles": "CCN(CC)CCCC(C)Nc1ccnc2cc(Cl)ccc12", "note": "(stereo unspecified) [Chloroquine]", "EC50, CellTox Green": 34.6},
      {"smiles": "C=CCn1c(=O)c2cnc(Nc3ccc(N4CCN(C)CC4)cc3)nc2n1-c1cccc(C(C)(C)O)n1", "note": "[MK1775]", "EC50, CellTox Green": 0.467},
      {"smiles": "CCNC(=O)c1noc(-c2cc(C(C)C)c(O)cc2O)c1-c1ccc(CN2CCOCC2)cc1", "note": "[NVP-AUY922]", "EC50, CellTox Green": 0.033},
      {"smiles": "O=[N+]([O-])c1ccc2c(c1)S(=O)(=O)C=C2", "note": "[Stattic]", "EC50, CellTox Green": 34}
    ]},
    {"system": "Hs578T", "conditions": "72 h", "method": "as §1", "units": {"EC50, CellTox Green": "µM"}, "values": [
      {"smiles": "COc1cc(Nc2c(C#N)cnc3cc(OCCCN4CCN(C)CC4)c(OC)cc23)c(Cl)cc1Cl", "note": "[Bosutinib]", "EC50, CellTox Green": 0.576},
      {"smiles": "CCN(CC)CCCC(C)Nc1ccnc2cc(Cl)ccc12", "note": "(stereo unspecified) [Chloroquine]", "EC50, CellTox Green": 18.8},
      {"smiles": "C=CCn1c(=O)c2cnc(Nc3ccc(N4CCN(C)CC4)cc3)nc2n1-c1cccc(C(C)(C)O)n1", "note": "[MK1775]", "EC50, CellTox Green": 2.13},
      {"smiles": "CCNC(=O)c1noc(-c2cc(C(C)C)c(O)cc2O)c1-c1ccc(CN2CCOCC2)cc1", "note": "[NVP-AUY922]", "EC50, CellTox Green": 0.247},
      {"smiles": "O=[N+]([O-])c1ccc2c(c1)S(=O)(=O)C=C2", "note": "[Stattic]", "EC50, CellTox Green": 1.71},
      {"smiles": "O=C(CCCCCCC(=O)Nc1ccccc1)NO", "note": "[Vorinostat]", "EC50, CellTox Green": 0.948}
    ]},
    {"system": "MCF-10A", "conditions": "72 h", "method": "as §1", "units": {"EC50, CellTox Green": "µM"}, "values": [
      {"smiles": "COc1cc(Nc2c(C#N)cnc3cc(OCCCN4CCN(C)CC4)c(OC)cc23)c(Cl)cc1Cl", "note": "[Bosutinib]", "EC50, CellTox Green": 2.08},
      {"smiles": "CCN(CC)CCCC(C)Nc1ccnc2cc(Cl)ccc12", "note": "(stereo unspecified) [Chloroquine]", "EC50, CellTox Green": 20.4},
      {"smiles": "C=CCn1c(=O)c2cnc(Nc3ccc(N4CCN(C)CC4)cc3)nc2n1-c1cccc(C(C)(C)O)n1", "note": "[MK1775]", "EC50, CellTox Green": 1.27},
      {"smiles": "CCNC(=O)c1noc(-c2cc(C(C)C)c(O)cc2O)c1-c1ccc(CN2CCOCC2)cc1", "note": "[NVP-AUY922]", "EC50, CellTox Green": 0.00761},
      {"smiles": "O=[N+]([O-])c1ccc2c(c1)S(=O)(=O)C=C2", "note": "[Stattic]", "EC50, CellTox Green": 1.19}
    ]},
    {"system": "MDA-MB-231", "conditions": "72 h", "method": "as §1", "units": {"EC50, CellTox Green": "µM"}, "values": [
      {"smiles": "COc1cc(Nc2c(C#N)cnc3cc(OCCCN4CCN(C)CC4)c(OC)cc23)c(Cl)cc1Cl", "note": "[Bosutinib]", "EC50, CellTox Green": 2.03},
      {"smiles": "CCN(CC)CCCC(C)Nc1ccnc2cc(Cl)ccc12", "note": "(stereo unspecified) [Chloroquine]", "EC50, CellTox Green": 10.4},
      {"smiles": "C=CCn1c(=O)c2cnc(Nc3ccc(N4CCN(C)CC4)cc3)nc2n1-c1cccc(C(C)(C)O)n1", "note": "[MK1775]", "EC50, CellTox Green": 0.203},
      {"smiles": "CCNC(=O)c1noc(-c2cc(C(C)C)c(O)cc2O)c1-c1ccc(CN2CCOCC2)cc1", "note": "[NVP-AUY922]", "EC50, CellTox Green": 0.00941},
      {"smiles": "O=[N+]([O-])c1ccc2c(c1)S(=O)(=O)C=C2", "note": "[Stattic]", "EC50, CellTox Green": 5.15},
      {"smiles": "O=C(CCCCCCC(=O)Nc1ccccc1)NO", "note": "[Vorinostat]", "EC50, CellTox Green": 1.72}
    ]},
    {"system": "MDA-MB-436", "conditions": "72 h", "method": "as §1", "units": {"EC50, CellTox Green": "µM"}, "values": [
      {"smiles": "COc1cc(Nc2c(C#N)cnc3cc(OCCCN4CCN(C)CC4)c(OC)cc23)c(Cl)cc1Cl", "note": "[Bosutinib]", "EC50, CellTox Green": 6.62},
      {"smiles": "CCN(CC)CCCC(C)Nc1ccnc2cc(Cl)ccc12", "note": "(stereo unspecified) [Chloroquine]", "EC50, CellTox Green": 5.41},
      {"smiles": "C=CCn1c(=O)c2cnc(Nc3ccc(N4CCN(C)CC4)cc3)nc2n1-c1cccc(C(C)(C)O)n1", "note": "[MK1775]", "EC50, CellTox Green": 0.0697},
      {"smiles": "O=[N+]([O-])c1ccc2c(c1)S(=O)(=O)C=C2", "note": "[Stattic]", "EC50, CellTox Green": 14.4}
    ]},
    {"system": "MDA-MB-453", "conditions": "72 h", "method": "as §1", "units": {"EC50, CellTox Green": "µM"}, "values": [
      {"smiles": "COc1cc(Nc2c(C#N)cnc3cc(OCCCN4CCN(C)CC4)c(OC)cc23)c(Cl)cc1Cl", "note": "[Bosutinib]", "EC50, CellTox Green": 7.28},
      {"smiles": "CCN(CC)CCCC(C)Nc1ccnc2cc(Cl)ccc12", "note": "(stereo unspecified) [Chloroquine]", "EC50, CellTox Green": 13.4},
      {"smiles": "CCNC(=O)c1noc(-c2cc(C(C)C)c(O)cc2O)c1-c1ccc(CN2CCOCC2)cc1", "note": "[NVP-AUY922]", "EC50, CellTox Green": "> 1"},
      {"smiles": "O=[N+]([O-])c1ccc2c(c1)S(=O)(=O)C=C2", "note": "[Stattic]", "EC50, CellTox Green": 27.4}
    ]},
    {"system": "MDA-MB-468", "conditions": "72 h", "method": "as §1", "units": {"EC50, CellTox Green": "µM"}, "values": [
      {"smiles": "COc1cc(Nc2c(C#N)cnc3cc(OCCCN4CCN(C)CC4)c(OC)cc23)c(Cl)cc1Cl", "note": "[Bosutinib]", "EC50, CellTox Green": 3.54},
      {"smiles": "CCN(CC)CCCC(C)Nc1ccnc2cc(Cl)ccc12", "note": "(stereo unspecified) [Chloroquine]", "EC50, CellTox Green": 0.568},
      {"smiles": "C=CCn1c(=O)c2cnc(Nc3ccc(N4CCN(C)CC4)cc3)nc2n1-c1cccc(C(C)(C)O)n1", "note": "[MK1775]", "EC50, CellTox Green": 0.156},
      {"smiles": "O=[N+]([O-])c1ccc2c(c1)S(=O)(=O)C=C2", "note": "[Stattic]", "EC50, CellTox Green": 1.13},
      {"smiles": "O=C(CCCCCCC(=O)Nc1ccccc1)NO", "note": "[Vorinostat]", "EC50, CellTox Green": 6.57}
    ]},
    {"system": "MFM-223", "conditions": "72 h", "method": "as §1", "units": {"EC50, CellTox Green": "µM"}, "values": [
      {"smiles": "CCN(CC)CCCC(C)Nc1ccnc2cc(Cl)ccc12", "note": "(stereo unspecified) [Chloroquine]", "EC50, CellTox Green": 15.3},
      {"smiles": "C=CCn1c(=O)c2cnc(Nc3ccc(N4CCN(C)CC4)cc3)nc2n1-c1cccc(C(C)(C)O)n1", "note": "[MK1775]", "EC50, CellTox Green": 0.267},
      {"smiles": "O=[N+]([O-])c1ccc2c(c1)S(=O)(=O)C=C2", "note": "[Stattic]", "EC50, CellTox Green": 1.23}
    ]}
  ]
}
